Reference: patent US8987193B2, “Nisin derivatives and the use thereof” (University College Cork—National University of Ireland, Cork, priority 2008, dated 2015)
Ends that are not written are not given here.

How the values were obtained:
[1] = test system: 30 L. monocytogenes and 3 L. innocua strains; assay: Deferred antagonism assay, collection of Listeria strains; type: cell-based; conditions: of 30 L. monocytogenes and 3 L. innocua strains
Method: (§1) Deferred antagonism assays were performed by replicating strains on GM17 or GM17 x-gal agar plates and allowing them to grow overnight before overlaying with either GM17/BHI/TS/MH agar (0.75% w/v agar) seeded with the appropriate indicator strain. Zone size was calculated as the diameter of the zone of clearing minus the diameter of bacterial growth (5 mm) For higher throughput screening of N20PXX, XM21VX, XXK22T and XXX banks deferred antagonism assays were performed by replicating strains using a 96 pin replicator (Boekel) or spotting 5 μl of a fresh overnight culture on GM17 agar plates and allowing them to grow overnight. […] Additional sets of indicators were employed to further assess/reassess the bioactivity of a number of strains. […] For well-diffusion assays molten agar was cooled to 48° C. and seeded with the appropriate indicator strain. The inoculated medium was rapidly transferred into sterile Petri plates in 50 ml volumes, allowed to solidify and dried. Wells (4.6 mm in diameter) were then made in the seeded plates. Purified nisin and mutant nisins were resuspended in 0.005% acetic acid, serially diluted, 50 μl volumes were dispensed into the aforementioned wells and the plates incubated at 37° C. overnight. Bioactivity was expressed as arbitrary units/ml (AU/ml) and calculated as the reciprocal of the highest dilution that gave a definite zone multiplied by the conversion factor (i.e. 20 when 50 μl was used) (Ryan et al., 1996).

[2] = test system: C. sporogenes CBC5; assay: Deferred antagonism assay; type: cell-based, Clostridium sporogenes; design: key: + = Enhanced bioactivity relative to control; − = Bioactivity equal to or less than control; NA = no activity evident; conditions: producing strain
[3] = test system: Listeria innocua FH2117; assay: Deferred antagonism assay; type: cell-based; conditions: nisin strain
Method: as §1

[4] = test system: Listeria monocytogenes NRRLB 33038; assay: Deferred antagonism assay; type: cell-based; conditions: nisin strain; L. monocytogenes NRRLB 33038
Method: as §1

[5] = test system: Listeria monocytogenes 33176; assay: Deferred antagonism assay; type: cell-based; conditions: nisin strain; L. monocytogenes 33176
Method: as §1

[6] = test system: Listeria monocytogenes 33077; assay: Deferred antagonism assay; type: cell-based; conditions: nisin strain; L. monocytogenes 33077
Method: as §1

[7] = test system: Listeria monocytogenes 33007; assay: Deferred antagonism assay; type: cell-based; conditions: nisin strain; L. monocytogenes 33007
Method: as §1

[8] = test system: Listeria monocytogenes 33411; assay: Deferred antagonism assay; type: cell-based; conditions: nisin strain; L. monocytogenes 33411
Method: as §1

[9] = test system: Listeria monocytogenes 33225; assay: Deferred antagonism assay; type: cell-based; conditions: nisin strain; L. monocytogenes 33225
Method: as §1

[10] = test system: Listeria monocytogenes CD1038; assay: Deferred antagonism assay; type: cell-based; conditions: nisin strain; L. monocytogenes CD1038
Method: as §1

[11] = test system: Listeria monocytogenes 33037; assay: Deferred antagonism assay; type: cell-based; conditions: nisin strain; L. monocytogenes 33037
Method: as §1

[12] = test system: Listeria monocytogenes 33423; assay: Deferred antagonism assay; type: cell-based; conditions: nisin strain; L. monocytogenes 33423
Method: as §1

[13] = test system: Listeria monocytogenes LO28; assay: Deferred antagonism assay; type: cell-based; conditions: nisin strain; L. monocytogenes LO28
Method: as §1

[14] = test system: Listeria monocytogenes 33090; assay: Deferred antagonism assay; type: cell-based; conditions: nisin strain; L. monocytogenes 33090
Method: as §1

[15] = test system: Listeria monocytogenes 33116; assay: Deferred antagonism assay; type: cell-based; conditions: nisin strain; L. monocytogenes 33116
Method: as §1

[16] = test system: Listeria monocytogenes SLCC 6793; assay: Deferred antagonism assay; type: cell-based; conditions: nisin strain; L. monocytogenes SLCC 6793
Method: as §1

[17] = test system: Listeria monocytogenes 33186; assay: Deferred antagonism assay; type: cell-based; conditions: nisin strain; L. monocytogenes 33186
Method: as §1

[18] = test system: Listeria monocytogenes CD83; assay: Deferred antagonism assay; type: cell-based; conditions: nisin strain; L. monocytogenes CD83
Method: as §1

[19] = test system: Listeria monocytogenes SLCC 4949; assay: Deferred antagonism assay; type: cell-based; conditions: nisin strain; L. monocytogenes SLCC 4949
Method: as §1

[20] = test system: Listeria monocytogenes 33013; assay: Deferred antagonism assay; type: cell-based; conditions: nisin strain; L. monocytogenes 33013
Method: as §1

[21] = test system: Listeria monocytogenes F2365; assay: Deferred antagonism assay; type: cell-based; conditions: nisin strain; L. monocytogenes F2365
Method: as §1

[22] = test system: L. monocytogenes EGDe; assay: Deferred antagonism assay; type: cell-based; design: key: −, no inhibition; (+), clear zone directly above the colony; +, 1-5 mm zone; ++, 6-10 mm zone; +++; conditions: nisin strain; Listeria monocytogenes EDGe
Method: as §1

[23] = test system: S. aureus CBC4; assay: Deferred antagonism assay; type: cell-based; design: key: + = Enhanced bioactivity relative to control; − = Bioactivity equal to or less than control; NA = no activity evident; conditions: producing strain
Outline: (§2)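 Well-diffusion testing of purified nisin variants in 0.005% acetic acid, serially diluted, 37° C overnight; AU/ml = reciprocal of last dilution with definite zone × 20. Deferred antagonism: overnight GM17 colonies overlaid with seeded soft agar (0.75%); zone = clearing diameter minus 5 mm.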

[24] = test system: L. lactis CBC7; assay: Deferred antagonism assay; type: cell-based; design: key: + = Enhanced bioactivity relative to control; − = Bioactivity equal to or less than control; NA = no activity evident; conditions: producing strain
Outline: as §2

[25] = test system: L. lactis CBC8; assay: Deferred antagonism assay; type: cell-based; design: key: + = Enhanced bioactivity relative to control; − = Bioactivity equal to or less than control; NA = no activity evident; conditions: producing strain
Outline: as §2

Row | Substance | number of strains with enhanced bioactivity (relative to the control) [1] | number of strains with equal levels of bioactivity [1] | Bioactivity relative to control [2] | Activity score (zone) [3] | Activity score (zone) [4] | Activity score (zone) [5] | Activity score (zone) [6] | Activity score (zone) [7] | Activity score (zone) [8] | Activity score (zone) [9] | Activity score (zone) [10] | Activity score (zone) [11] | Activity score (zone) [12] | Activity score (zone) [13] | Activity score (zone) [14] | Activity score (zone) [15] | Activity score (zone) [16] | Activity score (zone) [17] | Activity score (zone) [18] | Activity score (zone) [19] | also measured
1 | NisinA M21S (ITSISLCTPGCKTGALMGCNSKTATCHCSIHVSK; not fully specified; also: lantibiotic nisin: dehydrated residues and thioether rings not placed; UniProt P13068 24-57, looked up, variant M21S) [nisin A derivative, hinge substitution M21S] | 26 | 7 | + | + (+, 1-5 mm zone) | ++ (++, 6-10 mm zone) | ++ (++, 6-10 mm zone) | ++ (++, 6-10 mm zone) | ++ (++, 6-10 mm zone) | ++ (++, 6-10 mm zone) | ++ (++, 6-10 mm zone) | ++ (++, 6-10 mm zone) | ++ (++, 6-10 mm zone) | + (+, 1-5 mm zone) | +++ (+++, <10 mm zone) | + (+, 1-5 mm zone) | ++ (++, 6-10 mm zone) | +++ (+++, <10 mm zone) | + (+, 1-5 mm zone) | + (+, 1-5 mm zone) | + (+, 1-5 mm zone) | Activity score (zone) [20]: + (+, 1-5 mm zone); Activity score (zone) [21]: ++ (++, 6-10 mm zone); Activity score (zone) [22]: ++ (++, 6-10 mm zone); Bioactivity relative to control [23]: +; Bioactivity relative to control [24]: −; Bioactivity relative to control [25]: +
2 | NisinA K22A (ITSISLCTPGCKTGALMGCNMATATCHCSIHVSK; not fully specified; also: lantibiotic: lanthionine rings and dehydro residues not placed; UniProt P13068 24-57, looked up, variant K22A) [nisin A derivative, hinge substitution K22A] | 16 | 17 | − | + (+, 1-5 mm zone) | + (+, 1-5 mm zone) | + (+, 1-5 mm zone) | + (+, 1-5 mm zone) | + (+, 1-5 mm zone) | + (+, 1-5 mm zone) | + (+, 1-5 mm zone) | + (+, 1-5 mm zone) | + (+, 1-5 mm zone) | + (+, 1-5 mm zone) | + (+, 1-5 mm zone) | + (+, 1-5 mm zone) | + (+, 1-5 mm zone) | ++ (++, 6-10 mm zone) | + (+, 1-5 mm zone) | + (+, 1-5 mm zone) | + (+, 1-5 mm zone) | Activity score (zone) [20]: + (+, 1-5 mm zone); Activity score (zone) [21]: + (+, 1-5 mm zone); Activity score (zone) [22]: + (+, 1-5 mm zone); Bioactivity relative to control [23]: −; Bioactivity relative to control [24]: −; Bioactivity relative to control [25]: +
3 | NisinA M21I (ITSISLCTPGCKTGALMGCNIKTATCHCSIHVSK; not fully specified; also: lantibiotic: lanthionine rings and dehydro residues not placed; UniProt P13068 24-57, looked up, variant M21I) [nisin A derivative, hinge substitution M21I] | 17 | 15 | + | + (+, 1-5 mm zone) | + (+, 1-5 mm zone) | + (+, 1-5 mm zone) | + (+, 1-5 mm zone) | ++ (++, 6-10 mm zone) | + (+, 1-5 mm zone) | + (+, 1-5 mm zone) | ++ (++, 6-10 mm zone) | ++ (++, 6-10 mm zone) | + (+, 1-5 mm zone) | ++ (++, 6-10 mm zone) | + (+, 1-5 mm zone) | ++ (++, 6-10 mm zone) | +++ (+++, <10 mm zone) | + (+, 1-5 mm zone) | + (+, 1-5 mm zone) | + (+, 1-5 mm zone) | number of strains with reduced activity [1]: 1; Activity score (zone) [20]: + (+, 1-5 mm zone); Activity score (zone) [21]: + (+, 1-5 mm zone); Activity score (zone) [22]: + (+, 1-5 mm zone); Bioactivity relative to control [23]: +; Bioactivity relative to control [24]: +; Bioactivity relative to control [25]: +
4 | NisinA M21G (ITSISLCTPGCKTGALMGCNGKTATCHCSIHVSK; not fully specified; also: lantibiotic: lanthionine rings and dehydro residues not placed; UniProt P13068 24-57, looked up, variant M21G) [nisin A derivative, hinge substitution M21G] | 10 | 19 | + | + (+, 1-5 mm zone) | + (+, 1-5 mm zone) | + (+, 1-5 mm zone) | + (+, 1-5 mm zone) | + (+, 1-5 mm zone) | + (+, 1-5 mm zone) | + (+, 1-5 mm zone) | + (+, 1-5 mm zone) | + (+, 1-5 mm zone) | + (+, 1-5 mm zone) | + (+, 1-5 mm zone) | + (+, 1-5 mm zone) | + (+, 1-5 mm zone) | ++ (++, 6-10 mm zone) | + (+, 1-5 mm zone) | + (+, 1-5 mm zone) | + (+, 1-5 mm zone) | number of strains with reduced activity [1]: 4; Activity score (zone) [20]: + (+, 1-5 mm zone); Activity score (zone) [21]: + (+, 1-5 mm zone); Activity score (zone) [22]: −; Bioactivity relative to control [23]: +; Bioactivity relative to control [24]: −; Bioactivity relative to control [25]: −
